Like-named read-outs stand apart in the source and are kept apart here.
Tests used:
[1] = four compartment model; cited from earlier work
[2] = pharmacokinetics in blood after single intravenous administration of the emulsion of Ex. VI; assay type: in vivo, Sprague Dawley rats; conditions: for half-life: Sprague-Dawley, rat, iv; for half-life / AUC(o-last) / AUC(o-∞) / Cl: blood; for Vd: terminal phase
From the text: (§1) This study was designed to assess the pharmokinetics and tissue distribution of PFOB and PFDB following a single intravenous administration of the emulsion of Ex. VI at various time intervals at dose levels of 1.8 and 3.6 g PFC/k in male and female Sprague Daley rats, aged 7-9 weeks, weight between 190-267 grams. For pharmacokinetics, 160 rats were divided into 20 groups (N=4 rats/sex/dose/time interval) and for tissue distribution, 156 rats were divided into 26 groups (n=3 rats/sex/dose/time interval). The time intervals for pharmacokinetics blood sampling were 0.083, 0.5, 1, 3, 6, 12, 36, 48, 72 and 96 hours. The time intervals for tissue sampling was predose, 24 hours, 1, 2, 4, 8, 13, 17, 21, 26, 39, 52 and 72 weeks.
Six pharmacokinetic parameters were determined following a single intravenous dose of 1.8 gPFC/kg or 3.6 g PFC/kg in both the male and female rats as shown in the tables below.

[3] = tissue distribution after single intravenous administration of the emulsion of Ex. VI, GC headspace; assay type: in vivo, Sprague Dawley rats; conditions: 24 hours; for concentration at 24 h: Sprague-Dawley, rat, intravenous
From the text: as §1
26 groups (N=3 rats/sex/group). Prior to euthanasia, body weights were recorded. At designated times (see below), rats were anesthetized with METOFANE® and esanguinated via the abdominal artery. Blood was collected into syringes containing EDTA and transferred into sealed plastic containers for storage at approximately −20° C. until analyzed. Resultant data were included in the determination of pharmacokinetic parameters. The following tissues were collected from each rat and placed in sealed containers and stored frozen at −20° C. Prior to freezing, blood and tissue samples were processed for analysis. PFOB and PFDB were quantified in blood and tissues using a GC headspace method validated by Oread. The method was validated in the liver and then cross validated to all other tissues, blood, and serum. The tissues collected and analyzed include heart, lungs, abdominal fat, spleen, liver, mesenteric lymph nodes, kidneys, adrenals, testes, ovaries, uterus, whole brain, eyes, skeletal muscle, femoral bone marrow, and gastrointestinal tract.
The concentration of PFOB and PFDB was determined in the tissues in both sexes at 12 time points. For the males, this was a total of 360 individual results including blood. There were 24 additional results for the female.

[4] = Phase 1 pharmacokinetics in healthy human volunteers; assay type: in vivo; conditions: human, blood; for AUC(0-t) / half-life: intravenous; for AUC(0-t): read-out: AUC (0-336); for half-life: read-out: t1/2. 12 h (initial elimination half-life within the first 12 h post dose) (converted); for Cmax: iv, healthy volunteers
Method: Two randomised, controlled, double-blind, parallel group, Phase 1 studies were conducted in healthy human patients with the fluorocarbon emulsion made according to Example VI. Blood and expired air samples were analysed for PFOB and PFDB after a single intravenous dose of 1.2 or 1.8 g PFC/kg of the fluorocarbon emulsion of Example VI in healthy human volunteers to determine pharmacokinetics. Blood samples were collected up to 336 hours post-dosing.

[5] = pharmacokinetics in subjects undergoing CABG surgery with hypothermic CPB; assay type: in vivo, human
Method: The pharmacokinetics of PFOB and PFDB were determined after the administration of the fluorocarbon formulation taught in Example VI to human subjects undergoing coronary artery bypass grafting or CABG surgery with hypothermic cardiopulmonary bypass. In group 1 and in group 2, human subjects received the fluorocarbon emulsion (2.7 g PFC/kg) as taught in Example VI directly into the bypass oxygenator after being put on bypass but before cooling was begun. In group 4, subjects received 2.7 g PFC/kg of the fluorocarbon emulsion of Example VI directly into the bypass oxygenator either prior to aortic cannulation or after being put on bypass, but before cooling was begun.

[6] = pharmacokinetics in subjects undergoing noncardiac surgical procedures; assay type: in vivo, human; conditions: noncardiac surgery; for AUC(0-inf) / clearance / Cmax / half-life: human, whole blood; for clearance: read-out: CL (whole blood clearance) (converted); for Cmax: read-out: Cmax (maximum whole blood concentration); for half-life: read-out: T1/2 (elimination half-life) (converted)
Method: The pharmacokinetics of PFOB and PFDB were determined after the administration of the fluorocarbon emulsion of Example VI to subjects undergoing total hip replacement or spinal surgery or a variety of urologic and gynaecologic procedures including radical retropubic prostatectomy, radical hysterectomy, cystectomy and combined procedures. Human subjects in one study received either 0.9 g PFC/kg or 1.8 g PFC/kg of the fluorocarbon formulation of Example VI and those in a second study received 1.8 g PFC/kg of the fluorocarbon formulation of Example VI.

[7] = female rats, 1.8 g PFC/kg single iv
[8] = female rats, 3.6 g PFC/kg single iv
[9] = male rats, 1.8 g PFC/kg single iv
[10] = male rats, 3.6 g PFC/kg single iv
[11] = 1.2 g PFC/kg, Table VII, 1.2 g PFC/kg
[12] = 1.2 g PFC/kg, Table VIII, 1.2 g PFC/kg
[13] = 1.8 g PFC/kg, Table VII, 1.8 g PFC/kg
[14] = 1.8 g PFC/kg, Table VIII, 1.8 g PFC/kg

For `FC(F)(F)C(F)(F)C(F)(F)C(F)(F)C(F)(F)C(F)(F)C(F)(F)C(F)(F)Br` [PFOB, perfluorooctyl bromide], the “rate constant k10” value [1] is listed as “≈ 0.000 hr^−1”, the “rate constant k12” value [1] is listed as “≈ 0.04 hr^−1” and the “rate constant k24” value [1] is listed as “≈ 0.006 hr^−1”. The “rate constant k34” value [1] was “≈ 0.002 hr^−1”, the “rate constant k40” value [1] was “≈ 0.07 hr^−1” and the “rate constant k42” value [1] was “≈ 0.002 hr^−1”. For the same molecule, the half-life ([2]; both sexes, 1.8 g/kg, male and female rats, 1.8 g PFC/kg, read-out: average terminal t1/2 (converted)) was about 73 h, the half-life ([2]; both sexes, 3.6 g/kg, male and female rats, 3.6 g PFC/kg, read-out: average terminal t1/2 (converted)) was 181 h and the “AUC(o-last)” value [2, 7] was 126.86 mg·h/g. For the same molecule, the “AUC(o-∞)” value [2, 7] was 126.89 mg·h/g, the Cl [2, 7] was 5.41 g/h/kg and the Vd [2, 7] was 1605.67 g/kg. The “AUC(o-last)” value [2, 8] was 541.55 mg·h/g, the “AUC(o-∞)” value [2, 8] was 541.58 mg·h/g and the Cl [2, 8] was 6.70 g/h/kg. For the same molecule, the Vd [2, 8] was 1182.97 g/kg, the half-life ([2]; female, 1.8 g/kg, female rats, 1.8 g PFC/kg single iv, last 3 or 4 data points, read-out: T1/2 (converted)) was 78.5 h and the half-life ([2]; female, 3.6 g/kg, female rats, 3.6 g PFC/kg single iv, last 3 or 4 data points, read-out: T1/2 (converted)) was 123 h. For the same molecule, the “AUC(o-last)” value [2, 9] was 122.65 mg·h/g, the “AUC(o-∞)” value [2, 9] was 122.69 mg·h/g and the Cl [2, 9] was 6.01 g/h/kg. The Vd [2, 9] was 1443.18 g/kg, the “AUC(o-last)” value [2, 10] was 566.13 mg·h/g and the “AUC(o-∞)” value [2, 10] was 566.15 mg·h/g. The Cl [2, 10] was 8.93 g/h/kg, the Vd [2, 10] was 2191.83 g/kg and the half-life ([2]; male, 1.8 g/kg, male rats, 1.8 g PFC/kg single iv, last 3 or 4 data points, read-out: T1/2 (converted)) was 68.2 h. The half-life ([2]; male, 3.6 g/kg, male rats, 3.6 g PFC/kg single iv, last 3 or 4 data points, read-out: T1/2 (converted)) was 238 h, the “concentration in the liver and bone marrow” value ([3]; all four groups) was “greater than 10 mg/g” and the “percent of dose in liver” value ([3]; female rats, 1.8 g PFC/kg) was “approximately 63%”. The “percent of dose in spleen” value ([3]; female rats, 1.8 g PFC/kg) was “approximately 4%”, the “percent of dose in liver” value ([3]; female rats, 3.6 g PFC/kg) was “approximately 53%” and the “percent of dose in spleen” value ([3]; female rats, 3.6 g PFC/kg) was under 1%. For the same molecule, the concentration at 24 h ([3]; female, females 1.8 g PFC/kg, all tissues except the blood, eyes, and skeletal muscle, read-out: concentration in tissues) was over 100000 ng/g, the concentration at 24 h ([3]; female, females 3.6 g/kg of PFC, all tissues, read-out: concentration in tissues) was over 100000 ng/g and the “percent of dose in liver” value ([3]; male rats, 1.8 g PFC/kg) was “approximately 59%”. For the same molecule, the “percent of dose in spleen” value ([3]; male rats, 1.8 g PFC/kg) was under 1%, the “percent of dose in liver” value ([3]; male rats, 3.6 g PFC/kg) was “approximately 69%” and the concentration at 24 h ([3]; male, 3.6 g PFC/kg, males 3.6 PFC/kg, all tissues, read-out: concentration in tissues) was over 100000 ng/g. It also gave a concentration at 24 h ([3]; male, males 1.8 g/kg of PFC, all tissues except the eyes and skeletal muscles, read-out: absolute concentration in tissues) of over 100000 ng/g, an AUC(0-t) [4, 11] of 10.2 µg·h/mL and a half-life [4, 11] of 6.55 ± 2.06 h. The AUC(0-t) [4, 12] was 79200 µg·h/mL, the half-life [4, 12] was 5.41 h and the AUC(0-t) [4, 13] was 285000 µg·h/mL. The half-life [4, 13] was 10.5 ± 2.1 h, the AUC(0-t) [4, 14] was 239000 µg·h/mL and the half-life [4, 14] was 7.66 h. For the same molecule, the Cmax ([4]; 1.2 g PFC/kg, Table VII, 1.2 g PFC/kg single iv) was 13600 µg/mL, the Cmax ([4]; 1.2 g PFC/kg, Table VIII, 1.2 g PFC/kg single iv) was 12600 µg/mL and the Cmax ([4]; 1.8 g PFC/kg, Table VII, 1.8 g PFC/kg single iv) was 22700 µg/mL. The Cmax ([4]; 1.8 g PFC/kg, Table VIII, 1.8 g PFC/kg single iv) was 21800 µg/mL, the “whole blood concentration relative to PFDB” value [5] was about 30 fold and the AUC(0-inf) ([5]; human, whole blood, other: directly into the bypass oxygenator, 2.7 g PFC/kg) was 300000 µg·h/mL. For the same molecule, the clearance ([5]; human, whole blood, other: directly into the bypass oxygenator, 2.7 g PFC/kg, read-out: CL (whole blood clearance) (converted)) was 0.165 mL/min/kg, the Cmax ([5]; human, whole blood, other: directly into the bypass oxygenator, 2.7 g PFC/kg, read-out: Cmax (maximum whole blood concentration)) was 30300 µg/mL and the half-life ([5]; human, whole blood, other: directly into the bypass oxygenator, 2.7 g PFC/kg, read-out: T1/2 (elimination half-life) (converted)) was 7.65 ± 2.71 h. For the same molecule, the AUC(0-inf) ([6]; 0.9 g PFC/kg) was 13300 µg·h/mL, the clearance ([6]; 0.9 g PFC/kg) was 1.61 mL/min/kg and the Cmax ([6]; 0.9 g PFC/kg) was 7680 µg/mL. The half-life ([6]; 0.9 g PFC/kg) was 2.36 ± 3.06 h, the AUC(0-inf) ([6]; 1.8 g PFC/kg) was 57400 µg·h/mL and the clearance ([6]; 1.8 g PFC/kg) was 0.703 mL/min/kg. The Cmax ([6]; 1.8 g PFC/kg) was 17500 µg/mL, the half-life ([6]; 1.8 g PFC/kg) was 3.77 ± 2.69 h and the “whole blood concentration relative to PFDB” value [6] was “approximately 30 fold”.

Reference: patent US8748497B2, “Optimized fluorocarbon emulsions for blood substitutes and other therapeutic uses” (Alliance Pharmaceutical Corp., priority 2006, dated 2014)
